Measurements published in article PMC9693073, “Two Subgroups within the GH43_36 α-L-Arabinofuranosidase Subfamily Hydrolyze Arabinosyl from Either Mono-or Disubstituted Xylosyl Units in Wheat Arabinoxylan” (International Journal of Molecular Sciences, 2022).

Molecular target: T1, PoABF62 (Penicillium oxalicum, UniProt A0A2R4KZP3)
T1 construct: heterologously produced (fungal host), purified, supplied by Novozymes
Experiment: HPAEC-PAD of hydrolysis products
Assay type: biochemical
Settings: 10 mM ammonium acetate pH 5.0, 40 °C, 24 h, 100 μg/mL substrate

T1 sequence (A0A2R4KZP3 31-331): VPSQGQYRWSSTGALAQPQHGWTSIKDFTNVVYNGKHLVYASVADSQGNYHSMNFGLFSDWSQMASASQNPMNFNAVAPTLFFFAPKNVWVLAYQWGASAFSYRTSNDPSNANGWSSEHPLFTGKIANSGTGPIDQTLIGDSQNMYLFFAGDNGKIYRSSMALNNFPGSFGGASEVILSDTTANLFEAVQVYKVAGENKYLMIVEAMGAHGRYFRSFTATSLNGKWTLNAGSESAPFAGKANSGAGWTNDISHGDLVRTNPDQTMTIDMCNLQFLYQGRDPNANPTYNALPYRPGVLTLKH

| Structure (SMILES) | HPAEC-PAD of hydrolysis products | HPAEC-PAD of hydrolysis products (XA2XX/XA3XX mixture) |
| --- | --- | --- |
| OC[C@@H]1O[C@@H](O[C@H]2[C@H](O[C@@H]3CO[C@@H](O[C@@H]4COC(O)[C@H](O)[C@H]4O)[C@H](O)[C@H]3O)OC[C@@H](O)[C@@H]2O)[C@H](O)[C@H]1O (stereo partly drawn) [A2XX, 2-α-L-arabinofuranosyl-xylotriose] | PoABF62 and MgABF51 were highly active on all monosubstituted AXOS |  |
| OC[C@@H]1O[C@@H](O[C@@H]2[C@@H](O)[C@H](O[C@@H]3CO[C@@H](O[C@@H]4COC(O)[C@H](O)[C@H]4O)[C@H](O)[C@H]3O)OC[C@H]2O[C@@H]2OC[C@@H](O)[C@H](O)[C@H]2O)[C@H](O)[C@H]1O (stereo partly drawn) [XA3XX, 3-α-L-arabinofuranosyl-xylotetraose] |  | PoABF62 and MgABF51 were highly active on all monosubstituted AXOS |
